Measurements taken from patent US20110039763A1, “TARGETED ANTIMICROBIAL MOIETIES” (C3 JIAN, INC., priority 2009, published 2011).
“Also recorded” adds a separate entry of the source. Square brackets hold non-standard residues; d marks the D form. Ends that are not written are not given here. Aib = CC(C)(N)C(=O)O

Tested on: microorganisms
Assay: Targeting peptide binding to target microorganisms (Tables 3, 10, 12)
Conditions: microorganism(s) the targeting peptide binds, preferably 1x PBS
[1] = binding in aqueous buffers varied with peptide solubility

Substance | Target(s) [1] | Target(s) (binding in aqueous buffers that varied with peptide solubility)
PF-750 (AESSPAKTTA; Peptide with targeting and/or antimicrobial activity) | M. luteus; also recorded: C. jeikeium | 
PF-751 (AESSPAQETT; Peptide with targeting and/or antimicrobial activity) | S. epidermidis; also recorded: E. coli; also recorded: C. albicans; also recorded: C. jeikeium | 
PF-765 (YLYWEVEHKPIIAKRDAYYAQLRKQKEIEEGA; Peptide with targeting and/or antimicrobial activity) | S. epidermidis and M. luteus and E. coli and MRSA and E. faecalis and C. jeikeium | 
PF-766 (DAYYAQLRKQKEIEEGA; Peptide with targeting and/or antimicrobial activity) | S. epidermidis and M. luteus and C. albicans and MRSA and E. faecalis and C. jeikeium | 
PF-767 (DGKQGEPVALKPTDN; Peptide with targeting and/or antimicrobial activity) | S. epidermidis and M. luteus and E. coli and MRSA and S. pneumoniae and E. faecalis and C. jeikeium | 
PF-768 (GFRGGKRGGARG; Peptide with targeting and/or antimicrobial activity) | S. epidermidis; also recorded: S. pneumoniae; also recorded: E. faecalis; also recorded: C. jeikeium | 
PF-772 (TKESSS; Peptide with targeting and/or antimicrobial activity) | S. epidermidis and C. albicans and MRSA and S. pneumoniae and C. jeikeium | 
PF-773 (TLKESK; Peptide with targeting and/or antimicrobial activity) | S. epidermidis; also recorded: C. albicans; also recorded: C. jeikeium | 
PF-777 (PGADGKLAEASAAIARLVRS; Peptide with targeting and/or antimicrobial activity) | Mycobacteria spp. | 
PF-778 (MNLILTAHGT; Peptide with targeting and/or antimicrobial activity) | Mycobacteria spp. | 
PF-779 (IYGDFFNFYLCDISLKVNGLQPGGPVRTVKLFGQPTGRCTPQ; Peptide with targeting and/or antimicrobial activity) | Mycobacteria spp. | 
PF-780 (AVYDALVALAAAEHRAELATRDARAKDTYEKIGVHVVVAA; Peptide with targeting and/or antimicrobial activity) | Mycobacteria spp. | 
PF-781 (PLVVVNHRRAERSRG; Peptide with targeting and/or antimicrobial activity) | Mycobacteria spp. | 
PF-782 (TGPRRGIDLTSNRALSEVLDEGLELNSRK; Peptide with targeting and/or antimicrobial activity) | Mycobacteria spp. | 
PF-783 (FTSEVRGVFTYRVNKAGLITNMRGYWNLDMMTFGNQE; Peptide with targeting and/or antimicrobial activity) | Mycobacteria spp. | 
PF-784 (MAMTTVDNIVGLVIAVALMAFLFAALLFPEKF; Peptide with targeting and/or antimicrobial activity) | Mycobacteria spp. | 
PF-785 (MRPQHSPAGKAFVVKKITHEQS; Peptide with targeting and/or antimicrobial activity) | Mycobacteria spp. | 
PF-786 (LSERERRRLKRGII; Peptide with targeting and/or antimicrobial activity) | Mycobacteria spp. | 
PF-787 (MTERQRRALLKQHPEVVSWSDYLEKRKRRTGTAG; Peptide with targeting and/or antimicrobial activity) | Mycobacteria spp. | 
PF-788 (GLITVFAGTARILQLRRAAKKTHAAALR; Peptide with targeting and/or antimicrobial activity) | Mycobacteria spp. | 
PF-789 (PRGAQSGHG; Peptide with targeting and/or antimicrobial activity) | Mycobacteria spp. | 
PF-790 (PAGPDHLDQRDHR; Peptide with targeting and/or antimicrobial activity) | Mycobacteria spp. | 
PF-791 (IFLTTQNTDYSEHNAA; Peptide with targeting and/or antimicrobial activity) | S. mutans | 
PF-792 (ALHASGIQAI; Peptide with targeting and/or antimicrobial activity) | S. mutans | 
PF-793 (YTQ[Aib]NNASAYAMLLTNKDTVP; ends and bridges not checked) | S. mutans | 
PF-794 (NLYFENQGN; Peptide with targeting and/or antimicrobial activity) | S. mutans | 
PF-795 (ALHKSGIQVIADWVPDQIYN; Peptide with targeting and/or antimicrobial activity) | S. mutans | 

Substance | Target(s) [1] | Target(s) (binding in aqueous buffers that varied with peptide solubility)
PF-796 (YTQSNIPTAYALMLSNKDSI; Peptide with targeting and/or antimicrobial activity) | S. mutans | 
PF-797 (WYYFDNNGYM; Peptide with targeting and/or antimicrobial activity) | S. mutans | 
PF-798 (ALHSKGIKVMADWVPDQMYA; Peptide with targeting and/or antimicrobial activity) | S. mutans | 
PF-799 (YTHYNTALSYALLLTNKSSVP; Peptide with targeting and/or antimicrobial activity) | S. mutans | 
PF-800 (WYYFDNNGYM; Peptide with targeting and/or antimicrobial activity) | S. mutans | 
PF-C003 (FCSVDHDVITIAADHVKQGAEA; Peptide with targeting and/or antimicrobial activity) | A. naeslundii; also recorded: P. gingivalis; also recorded: S. mutans | 
PF-C008 (AQPRRTWLVNFGEVPSPGLTNDGMPDH; Peptide with targeting and/or antimicrobial activity) | A. naeslundii | 
PF-C034 (HPMPITVRSRKPGPLTAPSEH; Peptide with targeting and/or antimicrobial activity) | S. mutans; also recorded: E. coli | 
PF-C045 (FREGMGWPLSNEGSPTAPLPKHRNQV; Peptide with targeting and/or antimicrobial activity) | A. naeslundii; also recorded: T. denticola | 
PF-C050 (QGLARPVLRRIPL; Peptide with targeting and/or antimicrobial activity) | A. naeslundii; also recorded: S. mutans | 
PF-C063 (SHFRKGD; Peptide with targeting and/or antimicrobial activity) | A. naeslundii; also recorded: F. nucleatum; also recorded: S. mutans | 
PF-C068 (LNLFASI; Peptide with targeting and/or antimicrobial activity) | A. naeslundii; also recorded: F. nucleatum; also recorded: S. mutans | 
PF-C080 (INIPGLF; Peptide with targeting and/or antimicrobial activity) | A. naeslundii; also recorded: F. nucleatum; also recorded: S. mutans | 
PF-C093 (EKLGTMV; Peptide with targeting and/or antimicrobial activity) | A. naeslundii; also recorded: F. nucleatum; also recorded: S. mutans | 
PF-C134 (NELMKYPATLTATATTPGIKYSHLCSVCL; Peptide with targeting and/or antimicrobial activity) | A. naeslundii; also recorded: F. nucleatum; also recorded: P. gingivalis; also recorded: S. mutans; also recorded: T. denticola | 
PF-C160 (AASGFTYCASNGVWHPY; Peptide with targeting and/or antimicrobial activity) | F. nucleatum | 
PF-C259 (AEIQPHCLSVL; Peptide with targeting and/or antimicrobial activity) | F. nucleatum; also recorded: S. mutans | 
PF-C271 (FFPSYYSIIITYF; Peptide with targeting and/or antimicrobial activity) | A. naeslundii; also recorded: F. nucleatum; also recorded: P. gingivalis; also recorded: S. mutans; also recorded: T. denticola | 
PF-C273 (KNMLKRRMKQKRLFDEEDRLRVLSKYTKSYY; Peptide with targeting and/or antimicrobial activity) | A. naeslundii; also recorded: P. gingivalis; also recorded: S. mutans; also recorded: T. denticola | 
PF-C285 (FTIIELKKQKIKHGENNKKTAHPLNEPFCARA; Peptide with targeting and/or antimicrobial activity) | A. naeslundii; also recorded: F. nucleatum; also recorded: P. gingivalis; also recorded: S. mutans; also recorded: T. denticola | 
PF-S004 (VLLNIFRTLLEFFSPSNAPGAEDVPLPDTQA; Peptide with targeting and/or antimicrobial activity) | S. epidermidis and MRSA and C. jeikeium | 
PF-S007 (VVAGVVLLTALAVGSKRKEKKQIKEIQRLLAATR; Peptide with targeting and/or antimicrobial activity) | S. epidermidis and MRSA | 
PF-S015 (IENLERGARRPP; Peptide with targeting and/or antimicrobial activity) | S. epidermidis and MRSA and C. jeikeium | 
PF-S018 (GMPQIPRLRI; Peptide with targeting and/or antimicrobial activity) | S. epidermidis and M. luteus and C. albicans and MRSA and E. faecalis and C. jeikeium and C. jejuni | 
PF-S023 (MAEDERRALKRRTNRGRTRTRKRITV; Peptide with targeting and/or antimicrobial activity) | S. epidermidis and MRSA | 
PF-S024 (SKRGRKRKDRRKKKANHGKRPNS; Peptide with targeting and/or antimicrobial activity) |  | Corynebacteria
PF-S026 (TELKYNGEEYLLLTQRDILAVIEK; Peptide with targeting and/or antimicrobial activity) | S. epidermidis and MRSA and C. jeikeium | 
